Assay results as given in the SangsterLogP compilation.

Experiment: method code SF-AS, from DOI: 10.1016/0223-5234(92)90053-4

First: CCN(CC)CCCC(=O)c1ccccc1
Second: CN(CCO)CCCC(=O)c1ccccc1
The logP of the first is higher: 3.79 for the first, 2.4 for the second.

Going from `O=C(CCCNCCO)C1CCCCC1` to `O=C(CCCNCCO)c1cccs1`, the logP falls from 3.96 to 2.89.

First: Cc1ccccc1C(=O)CCCNCCO
Second: CCc1ccccc1C(=O)CCCNCCO
The logP of the first is lower: 3.61 for the first, 3.85 for the second.

Going from `CC(O)CNCCCC(=O)Cc1ccccc1` (configuration not stated) to `O=C(CCCNCCO)Cc1ccccc1`, the logP rises from 2.53 to 3.03.

`Cc1ccsc1C(=O)CCCNCCO` and `Cc1cc(C)c(C(=O)CCCNCCO)c(C)c1` are within 0.2 log units of each other in logP: 3 for the first, 3.16 for the second.

First: CN(CCO)CCCC(=O)Cc1ccccc1
Second: CN(CCO)CCCC(=O)c1cccs1
The logP of the first is lower: 3.07 for the first, 3.29 for the second.

Going from `CC(O)CNCCCC(=O)c1ccccc1` (configuration not stated) to `O=C(CCCNCCO)c1ccccc1`, the logP falls from 3.28 to 2.41.

`CC(O)CNCCCC(=O)c1cccs1` (configuration not stated) and `NCCNCCCC(=O)c1cccs1` are within 0.2 log units of each other in logP: 2.73 for the first, 2.58 for the second.

`NCCNCCCC(=O)c1ccccc1` gave a logP of 2.74.
